ChEMBL document CHEMBL1135518 (J Med Chem, 2002)

Tests used:
[1] = biological target: T1, Adrenergic receptor alpha-1 (Rattus norvegicus, UniProt P15823+P23944+P43140); assay: The binding affinity at Alpha-1 adrenergic receptor determined using [3H]prazosin; type: protein assay
T1 sequence (P15823 whole entry): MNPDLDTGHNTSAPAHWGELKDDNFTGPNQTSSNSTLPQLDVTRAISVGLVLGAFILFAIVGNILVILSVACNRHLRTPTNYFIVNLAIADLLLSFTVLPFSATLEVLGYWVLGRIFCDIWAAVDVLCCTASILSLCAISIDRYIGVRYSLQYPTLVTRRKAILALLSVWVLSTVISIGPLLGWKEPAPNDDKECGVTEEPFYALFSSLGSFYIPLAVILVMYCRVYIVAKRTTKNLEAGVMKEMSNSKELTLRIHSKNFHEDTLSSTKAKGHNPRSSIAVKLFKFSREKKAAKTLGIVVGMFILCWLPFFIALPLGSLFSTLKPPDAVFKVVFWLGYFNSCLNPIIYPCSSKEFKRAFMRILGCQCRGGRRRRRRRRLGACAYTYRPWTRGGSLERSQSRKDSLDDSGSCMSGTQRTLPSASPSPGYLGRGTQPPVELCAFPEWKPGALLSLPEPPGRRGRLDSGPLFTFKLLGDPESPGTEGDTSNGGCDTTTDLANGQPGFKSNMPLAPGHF
T1 sequence (P23944 whole entry): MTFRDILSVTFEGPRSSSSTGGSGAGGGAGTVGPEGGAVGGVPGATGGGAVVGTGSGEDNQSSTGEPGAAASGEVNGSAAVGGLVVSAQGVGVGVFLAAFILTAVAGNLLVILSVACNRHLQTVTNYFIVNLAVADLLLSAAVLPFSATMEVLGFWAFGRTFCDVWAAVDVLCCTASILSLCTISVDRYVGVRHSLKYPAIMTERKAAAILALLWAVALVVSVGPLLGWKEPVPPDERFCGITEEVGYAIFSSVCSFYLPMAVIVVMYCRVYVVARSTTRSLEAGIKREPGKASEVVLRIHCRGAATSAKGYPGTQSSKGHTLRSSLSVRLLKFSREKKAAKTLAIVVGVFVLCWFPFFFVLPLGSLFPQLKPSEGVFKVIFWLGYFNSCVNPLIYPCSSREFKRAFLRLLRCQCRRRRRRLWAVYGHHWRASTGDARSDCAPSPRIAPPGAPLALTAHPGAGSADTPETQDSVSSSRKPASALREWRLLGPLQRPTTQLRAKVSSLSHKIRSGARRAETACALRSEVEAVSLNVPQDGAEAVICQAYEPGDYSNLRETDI
T1 sequence (P43140 whole entry): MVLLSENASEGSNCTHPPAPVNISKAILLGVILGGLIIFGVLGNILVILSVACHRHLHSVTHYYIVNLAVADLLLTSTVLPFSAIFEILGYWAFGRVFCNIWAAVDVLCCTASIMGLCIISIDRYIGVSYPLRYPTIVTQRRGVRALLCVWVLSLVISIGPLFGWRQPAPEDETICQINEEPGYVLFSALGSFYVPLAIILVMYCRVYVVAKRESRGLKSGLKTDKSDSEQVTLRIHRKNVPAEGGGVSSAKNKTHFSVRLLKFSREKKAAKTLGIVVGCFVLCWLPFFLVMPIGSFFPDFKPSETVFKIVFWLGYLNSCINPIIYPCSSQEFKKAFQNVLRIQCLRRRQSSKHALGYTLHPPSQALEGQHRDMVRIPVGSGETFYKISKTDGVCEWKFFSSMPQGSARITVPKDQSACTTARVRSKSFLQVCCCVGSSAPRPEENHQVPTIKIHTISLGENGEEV

D(2) dopamine receptor = D(2) dopamine receptor (Rattus norvegicus, UniProt P61169); assay: The binding affinity at the Dopamine receptor D2 determined using [3H]spiperone
Chain of D(2) dopamine receptor (P61169 whole entry): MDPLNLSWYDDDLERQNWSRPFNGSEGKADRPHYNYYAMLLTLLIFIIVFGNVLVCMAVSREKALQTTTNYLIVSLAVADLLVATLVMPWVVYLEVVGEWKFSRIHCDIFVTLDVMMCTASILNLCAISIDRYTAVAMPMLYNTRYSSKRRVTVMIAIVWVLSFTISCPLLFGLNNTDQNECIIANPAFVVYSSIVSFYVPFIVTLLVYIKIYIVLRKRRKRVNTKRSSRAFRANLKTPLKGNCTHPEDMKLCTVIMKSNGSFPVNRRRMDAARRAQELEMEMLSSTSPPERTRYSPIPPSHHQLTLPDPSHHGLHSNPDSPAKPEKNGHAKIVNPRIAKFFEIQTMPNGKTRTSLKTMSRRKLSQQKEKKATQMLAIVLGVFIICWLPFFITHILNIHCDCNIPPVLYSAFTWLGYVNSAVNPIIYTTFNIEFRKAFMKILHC

D(4) dopamine receptor = biological target: T2, D(4) dopamine receptor (Homo sapiens, UniProt P21917); assay: The binding affinity at the Dopamine receptor D4 determined using [3H]YM-09151-2
T2 sequence (P21917 whole entry): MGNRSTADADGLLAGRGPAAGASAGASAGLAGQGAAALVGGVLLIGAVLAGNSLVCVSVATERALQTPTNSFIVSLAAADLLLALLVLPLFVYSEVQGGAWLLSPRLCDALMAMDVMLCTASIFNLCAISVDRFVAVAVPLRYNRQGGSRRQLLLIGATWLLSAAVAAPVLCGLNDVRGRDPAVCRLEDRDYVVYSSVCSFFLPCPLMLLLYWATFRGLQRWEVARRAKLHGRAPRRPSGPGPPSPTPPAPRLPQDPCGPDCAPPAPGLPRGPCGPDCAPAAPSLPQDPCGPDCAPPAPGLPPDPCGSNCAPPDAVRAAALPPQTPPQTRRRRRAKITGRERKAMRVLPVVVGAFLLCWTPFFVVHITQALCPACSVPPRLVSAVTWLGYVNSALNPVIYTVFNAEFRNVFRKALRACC

[2] = The binding affinity at the Histamine H1 receptor determined using [3H]pyrilamine; parameters: species or system Cavia porcellus
[3] = biological target: T3, 5-hydroxytryptamine receptor 2C (Rattus norvegicus, UniProt P08909); assay: The binding affinity at 5-hydroxytryptamine 2C receptor was determined using [3H]mesulergine
T3 sequence (P08909 whole entry): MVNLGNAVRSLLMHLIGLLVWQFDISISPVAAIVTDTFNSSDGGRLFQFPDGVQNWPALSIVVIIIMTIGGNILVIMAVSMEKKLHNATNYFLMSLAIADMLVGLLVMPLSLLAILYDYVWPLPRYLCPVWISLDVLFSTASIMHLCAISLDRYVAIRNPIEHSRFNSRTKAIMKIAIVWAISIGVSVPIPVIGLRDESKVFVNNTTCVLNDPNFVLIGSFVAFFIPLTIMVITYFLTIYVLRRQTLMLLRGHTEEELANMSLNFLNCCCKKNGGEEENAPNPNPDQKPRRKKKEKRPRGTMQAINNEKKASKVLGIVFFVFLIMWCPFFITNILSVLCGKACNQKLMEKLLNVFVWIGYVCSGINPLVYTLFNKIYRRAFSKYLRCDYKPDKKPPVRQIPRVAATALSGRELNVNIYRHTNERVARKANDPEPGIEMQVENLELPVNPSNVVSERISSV

D(3) dopamine receptor = D(3) dopamine receptor (Homo sapiens, UniProt P35462); assay: The binding affinity at the Dopamine receptor D3 determined using [3H]spiperone
Chain of D(3) dopamine receptor (P35462 whole entry): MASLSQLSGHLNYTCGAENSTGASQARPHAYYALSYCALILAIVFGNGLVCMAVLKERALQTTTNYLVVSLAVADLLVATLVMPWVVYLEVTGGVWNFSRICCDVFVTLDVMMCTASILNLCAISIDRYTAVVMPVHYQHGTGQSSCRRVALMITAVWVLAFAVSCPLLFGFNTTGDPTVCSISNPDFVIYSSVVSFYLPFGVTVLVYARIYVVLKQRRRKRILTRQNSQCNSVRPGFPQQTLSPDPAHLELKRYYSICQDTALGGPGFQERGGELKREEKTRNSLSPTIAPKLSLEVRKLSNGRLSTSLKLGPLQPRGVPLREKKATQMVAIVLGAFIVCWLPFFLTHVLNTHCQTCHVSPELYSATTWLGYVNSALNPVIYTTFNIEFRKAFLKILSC

| Compound | Ki [1] [nM] | Ki (D(2) dopamine receptor) [nM] | Ki (D(4) dopamine receptor) [nM] | Ki [2] [nM] | Ki [3] [nM] | Ki (D(3) dopamine receptor) [nM] |
| --- | --- | --- | --- | --- | --- | --- |
| COc1cccc2c1N1CCN(C)C[C@@H]1c1ccccc1C2 | 205 | 460 | 160 | 13 | 0.16 | 3570 |
| COc1cccc2c1N1CCN(C)C[C@H]1c1ccccc1C2 | 74 | 20 | 47 | 14 | 0.39 | 100 |
| COc1cccc2c1N1CCN(C)CC1c1ccccc1C2 (racemic) | 84 | 28 | 92 | – | 0.21 | 260 |
